In patent US20210087159A1, “TETRAHYDROCANNABINOLIC- CA[…] DERIVATIVES AND USES THEREOF” (AL&AM […]., priority 2018, published 2021):

How the values were obtained:
Assay type in all cases: cell-based
[1] = test system: T47D, breast ductal carcinoma; assay: CellTiter-Glo cell viability assay, cancer cell cytotoxicity/anti-proliferation panel (Chempartner); conditions: T47D
Protocol: (§1) In this study, the biological activity of certain compounds of the present invention on cancer cell cytotoxicity/anti-proliferation panel was tested using the CellTiter-Glo® cell viability assay. The compounds were dissolved in DMSO to make 10 mM solution.
(§2) The cell lines tested were all selected from the Chempartner's cell collection and included: Caco-2 ATCC colon adenocarcinoma; TE-6 RIKEN esophagus, carcinoma; PC-3 ATCC prostate adenocarcinoma; T47D, breast ductal carcinoma; U251, brain human glioma; A549, lung carcinoma; OMP-2, multiple myeloma; SK-HEP-1, liver adenocarcinoma; PANC-1, pancreas ductal carcinoma; AsPC-1, pancreas, ductal carcinoma; and U-87 MG, brain glioblastoma.
(§3) For the assays described herein, absolute inhibition of cells growth (%) and absolute IC50 (Abs IC50; […]) were used to derive a value that can be used to compare results within and across runs in the same assay, as well as between different assays.
(§4) • a. Prepare complete medium: Add FBS and appropriate additives according to the information sheet provided by the vendor. Mix gently. • b. Check the cell name and complete medium and passage number marked on the flask. For adherent cell lines, refer to c to k. For suspension cell lines, refer to g to k. • c. Remove and discard culture medium using a vacuum pump. • d. Briefly rinse the cell layer with 0.25% (w/v) trypsin-0.038% (w/v) EDTA solution to remove all traces of serum that contains trypsin inhibitor. • e. Add 3.0 ml of trypsin-EDTA solution to flask and observe cells under an inverted microscope until cell layer is dispersed. • f. Add 8.0 ml of complete growth medium and aspirate cells by gently pipetting. • g. Transfer the cell suspension to a centrifuge tube and centrifuge at 800-1000 rpm for 3-5 minutes. • h. Discard the supernatant using a vacuum pump. • i. Add appropriate volume of complete medium. Suspend the cell pellet by gently pipetting. • j. Count the cell numbers with Vi-cell XR and adjust cells to appropriate density. • k. Add 100 μL of cell suspension to 96-well opaque-walled clear bottom plates according to the planned plate layout and place the plates in the CO2 incubator overnight. • l. Plate layout:
(§5) • Plate preparation of testing articles. 10 mM stock solution of each one of the compounds (provided as powder) was prepared in DMSO. […] 0.5 μL of each of the diluted compounds was transferred to the wells containing 100 μL of the culture medium. The total dilution was 200 fold. Cells were incubated with the compounds for 72 hours at 5% CO2, 37° C.
(§6) • Thaw the CellTiter-Glo buffer and equilibrate to room temperature prior to use. • Equilibrate the lyophilized CellTiter-Glo substrate to room temperature prior to use. • Transfer the appropriate volume of CellTiter-Glo buffer into the amber bottle containing CellTiter-Glo substrate to reconstitute the lyophilized enzyme/substrate mixture. This forms the CellTiter-Glo reagent. • Mix by gently vortexing, swirling or by inverting the contents to obtain a homogeneous solution. The CellTiter-Glo substrate should go into solution easily in less than one minute.
(§7) • Observe the cell morphology under an inverted microscope after corresponding treatment. • Equilibrate the plate and its contents to room temperature for approximately 30 minutes. • Add 100 μL of CellTiter-Glo reagent to the assay plate by Multidrop Combi instrument. • Mix contents for 10 minutes on an orbital shaker to induce cell lysis. • Allow the plate to incubate at room temperature for 10 minutes to stabilize luminescent signal. • Paste the clear bottom with white back seal and record luminescence with Enspire. The settings should be: Luminescence, measurement time 0.1 ms.
(§8) Inhibition (%) and absolute IC50 (μM) of each compound was calculated with XLFit curve fitting software that is compatible to Activity Base.

[2] = test system: AsPC-1, pancreas, ductal carcinoma; assay: as above
Protocol: as §1, §2, §3, §4, §5, §6, §7, §8

[3] = test system: A549, lung carcinoma; assay: as above
Protocol: as §1, §2, §3, §4, §5, §6, §7, §8

[4] = test system: PANC-1, pancreas ductal carcinoma; assay: as above; conditions: for IC50: Homo sapiens, PANC-1, 72 h, read-out: IC50 (absolute IC50)
Protocol: as §1, §2, §3, §4, §5, §6, §7, §8

[5] = test system: U-87 MG, brain glioblastoma; assay: as above; conditions: for IC50: Homo sapiens, 72 h, read-out: IC50 (absolute IC50)
Protocol: as §1, §2, §3, §4, §5, §6, §7, §8

[6] = test system: PANC-1 (pancreatic carcinoma); assay: XTT cytotoxicity assay (Pharma Seed); conditions: Homo sapiens, 48 hours, 20, 10, 5, 1 μM, assay medium 1% FBS
Protocol: In this study, the cytotoxicity of several compounds of the present invention on lung and pancreatic cancer cell was evaluated.
PANC-1 (pancreatic carcinoma) culture medium: DMEM (High Glucose), supplemented with 10% FBS (heat inactivated), 2 mM L-glutamine, and 1% of Pen/Strep/Amp solution. PANC-1 assay medium: DMEM (High Glucose), supplemented with 1% FBS (heat inactivated), 2 mM L-glutamine, and 1% of Pen/Strep/Amp solution.
Each of the tested compounds was dissolved in DMSO to reach a stock concentration of 20 mM (and stored at −15° C.-−25° C. until use. Compound Ia28 (MW 484 g/mol, 3.05 mg total) was dissolved in 0.315 mL; compound Ia9 (MW 484 g/mol, 2.33 mg total) was dissolved in 0.241 mL; and compound Ia6 (MW 428.3 g/mol, 2.25 mg total) was dissolved in 0.262 mL.
On the day of incubation with the cells, each compound was diluted in DMSO to reach 2 mM, 1 mM, 0.5 mM, 0.1 mM stock concentrations (1:10, 1:20, 1:40 and 1:200), and each of these stocks was further diluted in assay medium 1:100 for final concentration of 20 μM, 10 μM, 5 μM, and 1 μM.
Part 1—cell number calibration. PANC-1 and A549 cells were each plated in a 96 well plate, in their culture medium, at various cell concentrations per well, in triplicates, and were allowed to attach for 24 hours. Thereafter, culture medium was discarded, assay medium was added, and the cells were incubated for additional 72 hours. Finally, assay medium was discarded, and fresh culture medium was added to the cells along with 50 μl XTT reagent. The OD was measured every two hours for 6 hours (three times).
The highest cells number/well were chosen for part 2 as follows: PANC-1 at 7,500 cells per well, A549 at 5000 cells per well.
Part 2—cells incubation with tested compounds. PANC-1 and A549 cells were plated in a 96 well plate, in their culture medium, at the optimal cell concentration according to the results from the previous section and were allowed to attach for 24 hours. Thereafter, the culture medium was discarded, and fresh assay medium was added to the cells, supplemented with elevating compound concentrations. Triton 0.1% was used as positive control for cell death. The cells were incubated for another 48 hours (TBD upon microscopic observation). Finally, fresh culture medium was added to the cells along with 50 μl XTT reagent. The OD was measured at the optimal time point according to the results in the previous section.

[7] = test system: human peripheral blood mononuclear cells (PBMCs); assay: Cell proliferation of LPS-challenged PBMCs by CellTiter-Glo (CTG); conditions: human PBMCs, 72 h (LPS control 84.50)
From the text: (§9) This study was aimed to test the effect of 12 compounds (THCA, Ia1, Ia5, Ia6, Ia9, Ia11, Ia15, Ia17, Ia24, Ia25, Ia27, and Ia28) on human peripheral blood mononuclear cells (PBMCs) challenged by lipopolysaccharide (LPS) through monitoring multiple inflammatory endpoints.
(§10) Blood samples were collected from healthy volunteers according to protocols that have been reviewed and approved by the Chempartner Institutional Ethic Committee (IEC) upon signing an Informed Consent Form (ICF).
(§11) Fresh PBMCs were isolated and seeded into 96-well plate, and diluted solutions of the tested compounds and 0.1 μg/mL LPS were then added (in triplicates). To serve as control, 3 wells with PBMCs only, 3 wells with 0.1 μg/mL LPS, and 2 wells with 1 μg/mL dexamethasone (Dex) and 0.1 μg/mL LPS were included. After 72 hours incubation, supernatant was collected for tumor necrosis factor-α (TNF-α) measurement by enzyme-linked immunosorbent assay (ELISA), and cell pellets were harvested for cell proliferation measurement by CellTiter-Glo® Luminescent Cell Viability Assay (CTG).
(§12) The human blood sample from an individual donor was diluted by the same volume of sterile phosphate buffered solution (PBS) and mixed sufficiently by gentle shake. 15 mL Lymphoprep™ medium was transferred into a new 50 mL centrifuge tube, and the diluted blood sample (30 mL) was then carefully added onto the surface of the medium, which consequently contained Ficoll 400 and blood in a volume ratio of 1:2. Four interfaces were observed after centrifugation, which are, from top to bottom, layers of plasma, mononuclear cells, Ficoll medium, and red blood cells (RBCs). Plasma was absorbed, and mononuclear cells were then transferred into another new sterile centrifuge tube. Then, sterile PBS buffer was added into the collected PBMCs for washing, at a volume ratio of 3:1. PBMCs were washed with 5-10 mL PBS twice before cell counting with cytometer. Cells were centrifuged at 350×g, for 10 min, at 20° C. with the acceleration (5) and deceleration (5) settings during the centrifugation. The cells were resuspended with RPMI 1640 complete medium (containing 10% FBS) for assay, and the density was adjusted with RPMI 1640 complete medium to the final concentration of 2E6 cells/mL. Cells suspension of the PBMCs (100 μL/well) were seeded into 96-well plate (#3903).
(§13) Diluted solutions of the tested compounds were prepared with RPMI 1640 complete medium according to the following layout. Compounds were prepared at 5-fold of concentration (50 μM), and then were diluted to the working concentration of 10 μM with RPMI 1640 complete medium and made 10-fold serially dilution (2 points). The diluted compounds (50 μL/well) were added to the indicated wells, and the plate was incubated at 37° C., 5% CO2, for 72 h.
(§14) LPS (0.1 μg/mL, 100 μL) was added into each well. Dex (1 μg/mL) was included as a positive control. Plate was incubated at 37° C., 5% CO2 for 72 h. Supernatant was collected to measure TNF-α by ELISA. Cell proliferation was detected by CTG.

[8] = test system: TNF-α; assay: LPS induced cytokine release assay, TNF-α by ELISA in PBMCs; conditions: human PBMCs; for TNF-α: 72 h, ELISA (LPS control 18.16)
From the text: as §9, §10, §11, §12, §13, §14

[9] = test system: SK-HEP-1, liver adenocarcinoma; assay: CellTiter-Glo cell viability assay, cancer cell cytotoxicity/anti-proliferation panel (Chempartner); conditions: Homo sapiens, SK-HEP1, 72 h; read-out: IC50 (absolute IC50)
Protocol: as §1, §2, §3, §4, §5, §6, §7, §8

[10] = 72 hours, compounds 10 μM starting, STS 2 μM starting, 10-pt, 3-fold dilution

`CCCCCc1cc2c(c(O)c1C(=O)N/N=C/c1ncccn1)[C@@H]1C=C(C)CC[C@H]1C(C)(C)O2` [Ia16, (6aR,10aR)-1-hydroxy-6,6,9-trimethyl-3-pentyl-N′-((E)-pyrimidin-2-ylmethylene)-6a,7,8,10a-tetrahydro-6H-benzo[c]chromene-2-carbohydrazide] was tested, and the IC50 ([1]; Homo sapiens, 72 h, read-out: IC50 (absolute IC50)) was > 10 µM, the Inhibition [1, 10] was 47.20% and the Inhibition ([2]; AsPC-1, 72 hours, compounds 10 μM starting, STS 2 μM starting, 10-pt, 3-fold dilution) was 67.70%. For the same compound, the IC50 ([2]; Homo sapiens, ASPC1, 72 h, read-out: IC50 (absolute IC50)) was 4.34 µM, the Inhibition ([3]; A549, 72 hours, compounds 10 μM starting, STS 2 μM starting, 10-pt, 3-fold dilution) was 70.01% and the IC50 ([3]; Homo sapiens, A549, 72 h, read-out: IC50 (absolute IC50)) was 5.53 µM. For the same compound, the IC50 [4] was 1.88 µM, the Inhibition ([4]; PANC-1, 72 hours, compounds 10 μM starting, STS 2 μM starting, 10-pt, 3-fold dilution) was 85.71% and the Inhibition [5, 10] was 73.80%. It also gave an IC50 [5] of 3.37 µM and an IC50 [6] of 7 µM.

With `C=C(C)[C@@H]1CCC(C)=C[C@H]1c1c(O)cc(CCCCC)c(C(=O)NCCN2CCCC2)c1O` [Ia27, (1′R,2′R)-2,6-dihydroxy-5′-methyl-4-pentyl-2′-(prop-1-en-2-yl)-N-(2-(pyrrolidin-1-yl)ethyl)-1′,2′,3′,4′-tetrahydro-[1,1′-biphenyl]-3-carboxamide] the CTG signal ([7]; compound 1 μM + 0.1 μg/mL LPS) was 81.90 10^4, the CTG signal ([7]; compound 10 μM + 0.1 μg/mL LPS) was 78.67 10^4 and the IC50 [6] was 7.5 µM. The TNF-α ([8]; compound 1 μM + 0.1 μg/mL LPS) was 36.23 pg/mL, the TNF-α ([8]; compound 10 μM + 0.1 μg/mL LPS) was 22.09 pg/mL and the “change of TNF-α expression in LPS-treated cells” value ([8]; tested concentrations of 1 M and 10 M (so in the source)) was “decreased TNF-α expression”.

For `CCCCCc1cc2c(c(O)c1C(=O)NCCNc1ncccn1)[C@@H]1C=C(C)CC[C@H]1C(C)(C)O2` [Ia31, (6aR,0aR)-1-hydroxy-6,6,9-trimethyl-3-pentyl-N-(2-(pyrimidin-2-ylamino)ethyl)-6a,7,8,10a-tetrahydro-6H-benzo[c]chromene-2-carboxamide], the IC50 [6] was 8.5 µM.

Compound `CCCCCc1cc2c(c(O)c1C(=O)NCCN1CCCC1)[C@@H]1C=C(C)CC[C@H]1C(C)(C)O2` [Ia32, (6aR,0aR)-1-hydroxy-6,6,9-trimethyl-3-pentyl-N-(2-(pyrrolidin-1-yl)ethyl)-6a,7,8,10a-tetrahydro-6H-benzo[c]chromene-2-carboxamide] has an IC50 [6] of 3.9 µM.

`CCCCCc1cc2c(c(O)c1C(=O)NCCn1ccnc1)[C@@H]1C=C(C)CC[C@H]1C(C)(C)O2` [Ia33, (6aR,0aR)—N-(2-(1H-imidazol-1-yl)ethyl)-1-hydroxy-6,6,9-trimethyl-3-pentyl-6a,7,8,10a-tetrahydro-6H-benzo[c]chromene-2-carboxamide] showed an IC50 [6] of 6.7 µM.

Compound `CN[C@@H]1C[C@H]2O[C@@](C)([C@@H]1OC)n1c3ccccc3c3c4c(c5c6ccccc6n2c5c31)C(=O)NC4` [STS, Staurosporine, reference compound] has an IC50 [4] of 0.04 µM, an IC50 [5] of 0.082 µM and an IC50 [9] of 0.07 µM.
